Measured values reported in patent US9745261B2, “Inhibitors of the MITF molecular pathway” (THE GENERAL HOSPITAL CORPORATION, priority 2013, dated 2017).

How the values were obtained:
SK-MEL-5 cells = assay: SK-MEL-5 cell cytotoxicity assay (CellTiter-Glo); format: cell-based, human; conditions: FIG. 13
Procedure: (§1) SK-MEL-5 cells were treated with compounds for 24 hours, and then cell viability was measured using the CellTiter-Glo Assay (Promega), a luciferase-based reagent that measures cellular ATP levels. The compounds were tested at different concentrations to determine IC50 values. Compounds that were active in the primary assay and toxic below 30 μM at 24 hours were considered for probe development. Data were normalized against DMSO in Genedata Screener's Assay Analyzer.
(§2) SK-MEL-5 cells were maintained in DMEM (10% FBS, 1% Pen-Strep-Glutamine). Cells were fluid changed every 3 days and/or split upon reaching 100% confluency. For secondary assays, cells were thawed at 4 million cells per Falcon T175 flask. After 3 days, the cells were fluid changed, after 3 more days cells were passed to a Corning Triple flask (10-15 million cells) and plated after 3 days in the triple flask.
Day 1 • 1. Plate SK-MEL-5 cells at 3,000 per well in 30 uL media (phenol red free DMEM/10% Fetal Bovine Serum/Penicillin/Streptomycin/L-Glutamine) • 2. Use Corning white 384-well, square, opaque-bottomed plates (Corning Catalog No. 8867BC)
Day 2 • 3. Pin 100 nL compound/DMSO solution (Cybi Well) into assay plates. (For HTS, required sentinel pinning with the positive control, parthenolide (6 mM)) • 4. […]
(§3) Day 3 • 5. […] Read on the Perkin-Elmer EnVision plate reader with luminescence (LUM) settings for 0.1 sec per well. […]

A375 cells = assay: A-375 cell cytotoxicity assay (CellTiter-Glo); format: cell-based, human; conditions: FIG. 13
Procedure: as §1, with “A375 cells were” for “SK-MEL-5 cells were”, “assay and were not toxic below” for “assay and toxic below”
as §2, with “A-375” for “SK-MEL-5”, “90%” for “100%”, “2” for “4”, “days,” for “days, the cells were fluid changed, after 3 more days”, “(6-8” for “(10-15”
Day 1 • 1. Plate A-375 cells at 3,000 per well in 30 uL media (phenol red free DMEM/10% Fetal Bovine Serum/Penicillin/Streptomycin/L-Glutamine) • 2. Use Corning white 384-well, square, opaque-bottomed plates (Corning Catalog No. 8867BC)
Day 2 • 3. Pin 100 nL compound/DMSO solution (Cybi Well) into assay plates. (For HTS, required sentinel pinning with the positive control, parthenolide (6 mM)) • 4. Incubate 24 hours at 37° C. in Liconic incubator.
as §3

MALME-3M cells = assay: MALME-3M cell cytotoxicity assay (CellTiter-Glo); format: cell-based, human; conditions: FIG. 13
Procedure: as §1, with “MALME-3M” for “SK-MEL-5”
as §2, with “MALME-3M” for “SK-MEL-5”, “IMDM (20%” for “DMEM (10%”, “6” for “4”, “days,” for “days, the”, “(15-18” for “(10-15”
Day 1 • 1. Plate MALME-3M cells at 3,000 per well in 30 uL media (phenol red free IMDM/10% Fetal Bovine Serum/Penicillin/Streptomycin/L-Glutamine) • 2. Use Corning white 384-well, square, opaque-bottomed plates (Corning Catalog No. 8867BC)
Day 2 • 3. Pin 100 nL compound/DMSO solution (Cybi Well) into assay plates, including the positive control. • 4. Incubate 24 hours at 37° C. in Liconic incubator.
as §3

CDK2 = assay: qPCR assay for CDK2 expression in SK-MEL-5 cells; format: cell-based, human; conditions: qPCR
Procedure: SK-MEL-5 cells were treated with compounds for 24 hours. Next, cells were lysed with DNase I (Ambion, from Cell to CT Lysis Mix). Lysed cells were delivered to a RT-PCR plate (Ambion, Cells to CT RT Mix) and the plates were then processed for reverse transcription to create cDNA. qPCR was performed by transferring cDNA from the RT-PCR plate to a qPCR plate containing PCR master mix (Roche, Probes Master), FAM Taqman probe/primer set for the target gene (human MITF, Applied Biosystem, 4331182 Hs01117294_m1), VIC Taqman probe/primer set for a house keeping gene (human GAPDH, Applied Biosystems C10228) and water. qPCR plates were cycled using a real-time PCR instrument (Roche, Light Cycler). Using the instrument software, a cycle call was generated when each well enters log phase amplification (Ct). The delta Ct value was determined by subtracting the Ct value of the control gene (GAPDH) from the Ct value of the target gene (MITF) in each well. The delta delta Ct value of each compound treatment was determined by averaging the delta Ct values of the mock well on each plate and subtracting that average from the delta Ct value of each compound well. […]
• 10. […] The RT assay plates are incubated at 37° C. for 1 hour and the reverse transcriptase is inactivated by incubating the plates for 1 minute at 95° C. • 13. cDNA is stored at −80° C. until ready for qPCR analysis […]

[1] = tested on: MITF and MITF target genes; assay: qPCR of MITF and MITF target genes in human melanoma cell lines and primary melanocytes; format: cell-based; conditions: 24 h, multiple cell lines
Procedure: (§4) Experiments described in this example were performed using methods as described in Haq et al. (2013). Oncogenic BRAF regulates oxidative metabolism via PGC1α and MITF. Cancer Cell. 2013 Mar. 18; 23(3):302-15.
Effect of ML329 (24 h at indicated concentration) on MITF mRNA and target gene mRNA expression in melanoma cell lines. mRNA was quantified by qPCR.

non-melanoma cells = assay: Non-melanoma cell viability (CellTiter-Glo, 48-72 hours); format: cell-based
Procedure: as §4
(§5) Indicated cell line was treated with varying concentrations of ML329 for 48-72 hours. Viability was measured using the CellTiter-Glo reagent (Promega).

MITF protein = MITF protein by Western immunoblotting in SKMEL-5 cells; format: cell-based, human
Procedure: as §4
MITF protein was detected using Western immunoblotting. In parallel, SK-MEL-5 cells treated with ML329 (above) were lysed and MITF mRNA was quantified by qPCR (FIG. 12b).

[2] = tested on: human melanoma cell lines; assay: Cell viability of human melanoma cell lines (CellTiter-Glo, 48-72 hours); format: cell-based
Procedure: as §4, §5

Structure (SMILES): Cc1nc2ccccc2n1/N=C/c1ccc([N+](=O)[O-])s1
- Cell viability, SK-MEL-5 (MITF-dependent), result in words (SK-MEL-5 cells): specific activity against the MITF-dependent cells
- Cell viability, A-375 (MITF-independent), result in words (A375 cells): no impairment of viability
- Cell viability, MALME-3M (MITF-dependent), result in words (MALME-3M cells): specific activity against the MITF-dependent cells
- CDK2 expression, result in words (CDK2): reduced the expression

Structure (SMILES): NS(=O)(=O)c1ccc(NC2=CC(=O)c3ccccc3C2=O)cc1 [ML329, 4-((1,4-dioxo-1,4-dihydronaphthalen-2-yl)amino)benzenesulfonamide]
- Effect on MITF mRNA and target gene mRNA expression [1]: suppresses MITF and its transcriptional activity
- Cytotoxicity in non-melanoma cells or melanoma cells lacking MITF (non-melanoma cells): not cytotoxic
- Effect on MITF protein (MITF protein): suppresses MITF protein
- Sensitivity of melanoma cell lines (cell viability) ([2]; A375, SKMEL2, IPC298 and SK30): less sensitive
- Cytotoxicity in a large number of melanoma cells ([2]; CellTiter-Glo, incl. vemurafenib-resistant lines): variably cytotoxic
- Sensitivity of melanoma cell lines (cell viability) ([2]; SKMEL5, IST MEL, MALME-3M and 501 MEL): very sensitive
- Sensitivity of melanoma cell lines (cell viability) ([2]; UACC257, C32, COLO800 and MZ2MEL): sensitive
